As usually defined, the EC50 is the midpoint of the concentration-response curve.

The assay has as its target T1, human IL-17AA (Homo sapiens, UniProt Q16552).
T1 construct: host or cells: HEK (human embryonic kidney) cells
T1 sequence (Q16552 24-155) 1: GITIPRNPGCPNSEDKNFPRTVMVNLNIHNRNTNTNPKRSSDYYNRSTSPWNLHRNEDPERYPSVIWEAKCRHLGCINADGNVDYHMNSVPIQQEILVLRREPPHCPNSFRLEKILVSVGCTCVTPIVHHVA
T1 sequence (Q16552 24-155) 2: T1 sequence (Q16552 24-155) 1
Nature of the assay: IL-8 release assay in human epithelial keratinocytes adult (HEKa). The assay is classed as cell-based. The note with it: 3 ng/ml human IL-17AA + 10 ng/ml human TNFalpha, 68-72 h, IL-8 by HTRF, read-out: Rel EC50 L-8 release assay. The gist of the method: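 IL-8 secretion, quantified by HTRF (665/620 nm) as percent of controls, served as the readout after 68–72 h culture of HEKa cells with compound plus IL-17AA (3 ng/ml final) and TNF-alpha (10 ng/ml final). Four-parameter logistic curves gave relative IC50 and Emax.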
A general note: Time-resolved FRET reads energy transfer from a long-lived donor to a nearby acceptor.
`Cc1cnn(C)c1-c1ccc(NC(=O)[C@@H](NC(=O)c2ccnn2C)[C@@H](c2cccc(-c3cc(N4C[C@@H]5C[C@H]4CO5)ncn3)c2)C2CC2)cc1` [Example 351, N-[(1S)-1-[(R)-cyclopropyl-[3-[6-[(1S,4S)-2-oxa-5-azabicyclo[2.2.1]heptan-5-yl]pyrimidin-4-yl]phenyl]methyl]-2-[4-(2,4-dimethylpyrazol-3-yl)anilino]-2-oxo-ethyl]-2-methyl-pyrazole-3-carboxamide]: the EC50 lay within 100 to 1000 nM.

As for `Cc1cnn(C)c1-c1ccc(NC(=O)[C@@H](NC(=O)C2(F)CC2)[C@@H](c2cccc(-c3cc(N4C[C@@H]5C[C@H]4CO5)ncn3)c2)C2CC2)cc1` [Example 352, N-[(1S)-1-[(R)-cyclopropyl-[3-[6-[(1S,4S)-2-oxa-5-azabicyclo[2.2.1]heptan-5-yl]pyrimidin-4-yl]phenyl]methyl]-2-[4-(2,4-dimethylpyrazol-3-yl)anilino]-2-oxo-ethyl]-1-fluoro-cyclopropanecarboxamide], the EC50 fell in the range of 100 to 1000 nM.

For the compound `Cc1n[nH]c(C)c1-c1ccc(NC(=O)[C@@H](NC(=O)C2(F)CC2)[C@@H]2CCc3ccc(-c4cc(C(C)C)ncn4)cc32)cc1` [Example 353, N-[(1S)-2-[4-(3,5-dimethyl-1H-pyrazol-4-yl)anilino]-1-[(1R)-6-(6-isopropylpyrimidin-4-yl)indan-1-yl]-2-oxo-ethyl]-1-fluoro-cyclopropanecarboxamide], the EC50 fell in the range of 100 to 1000 nM.

Regarding `Cc1n[nH]c(C)c1-c1ccc(NC(=O)[C@@H](NC(=O)C2(F)CC2)[C@@H]2CCc3ccc(-c4ccnc(N5C[C@@H]6C[C@H]5CO6)c4)cc32)cc1` [Example 354, N-[(1S)-2-[4-(3,5-dimethyl-1H-pyrazol-4-yl)anilino]-1-[(1R)-6-[2-[(1S,4S)-2-oxa-5-azabicyclo[2.2.1]heptan-5-yl]-4-pyridyl]indan-1-yl]-2-oxo-ethyl]-1-fluoro-cyclopropanecarboxamide], the EC50 was less than 100 nM.

On to `Cc1cnn(C)c1-c1ccc(NC(=O)[C@@H](NC(=O)C2(F)CC2)[C@@H]2CCc3ccc(-c4cc(C)c(=O)n(C(C)C)c4)cc32)cc1` [Example 355, N-[(1S)-2-[4-(2,4-dimethylpyrazol-3-yl)anilino]-1-[(1R)-6-(1-isopropyl-5-methyl-6-oxo-3-pyridyl)indan-1-yl]-2-oxo-ethyl]-1-fluoro-cyclopropanecarboxamide], for which the EC50 lay within 100 to 1000 nM.

Consider `Cc1n[nH]c(C)c1-c1ccc(NC(=O)[C@@H](NC(=O)C2(F)CC2)[C@@H]2CCc3ccc(-c4cc(N5C[C@@H]6C[C@H]5CO6)ncn4)cc32)cc1` [Example 356, N-[(1S)-2-[4-(3,5-dimethyl-1H-pyrazol-4-yl)anilino]-1-[(1R)-6-[6-[(1S,4S)-2-oxa-5-azabicyclo[2.2.1]heptan-5-yl]pyrimidin-4-yl]indan-1-yl]-2-oxo-ethyl]-1-fluoro-cyclopropanecarboxamide], for which the EC50 is 100 to 1000 nM.

In the case of `Cc1n[nH]c(C)c1-c1ccc(NC(=O)[C@@H](NC(=O)C2(F)CC2)[C@@H]2CCc3ccc(-c4cc(C)c(=O)n(C(C)C)c4)cc32)cc1` [Example 357, N-[(1S)-2-[4-(3,5-dimethyl-1H-pyrazol-4-yl)anilino]-1-[(1R)-6-(1-isopropyl-5-methyl-6-oxo-3-pyridyl)indan-1-yl]-2-oxo-ethyl]-1-fluoro-cyclopropanecarboxamide], the EC50 was less than 100 nM.

Regarding `Cc1ncn(C)c1-c1ccc(NC(=O)[C@@H](NC(=O)C2(F)CC2)[C@@H]2CCc3ccc(-c4ccnc(N5C[C@@H]6C[C@H]5CO6)c4)cc32)cc1O` [Example 358, N-[(1S)-2-[4-(3,5-dimethylimidazol-4-yl)-3-hydroxy-anilino]-1-[(1R)-6-[2-[(1S,4S)-2-oxa-5-azabicyclo[2.2.1]heptan-5-yl]-4-pyridyl]indan-1-yl]-2-oxo-ethyl]-1-fluoro-cyclopropanecarboxamide], the EC50 was less than 100 nM.

Consider `Cc1cnn(C)c1-c1ccc(NC(=O)[C@@H](NC(=O)C2(F)CC2)[C@@H]2CCc3ccc(-c4ccnc(N5CC[C@H](O)C5)c4)cc32)cc1` [Example 359, N-[(1S)-2-[4-(2,4-dimethylpyrazol-3-yl)anilino]-1-[(1R)-6-[2-[(3S)-3-hydroxypyrrolidin-1-yl]-4-pyridyl]indan-1-yl]-2-oxo-ethyl]-1-fluoro-cyclopropanecarboxamide], for which the EC50 is 100 to 1000 nM.

Regarding `Cc1n[nH]c(C)c1-c1ccc(NC(=O)[C@@H](NC(=O)C2(F)CC2)[C@@H]2CCc3ccc(-n4cnc(C(C)C)c4)cc32)cc1` [Example 360, N-[(1S)-2-[4-(3,5-dimethyl-1H-pyrazol-4-yl)anilino]-1-[(1R)-6-(4-isopropylimidazol-1-yl)indan-1-yl]-2-oxo-ethyl]-1-fluoro-cyclopropanecarboxamide], the EC50 was 100 to 1000 nM.

With `Cc1n[nH]c(C)c1-c1ccc(NC(=O)[C@@H](NC(=O)c2ccnn2C)[C@@H]2CCc3ccc(-n4cnc(C(C)C)c4)cc32)cc1` [Example 361, N-[(1S)-2-[4-(3,5-dimethyl-1H-pyrazol-4-yl)anilino]-1-[(1R)-6-(4-isopropylimidazol-1-yl)indan-1-yl]-2-oxo-ethyl]-2-methyl-pyrazole-3-carboxamide], the 50% effective concentration (EC50) was 100 to 1000 nM.

With `Cc1n[nH]c(C)c1-c1ccc(NC(=O)[C@@H](NC(=O)C2(F)CC2)[C@@H]2CCc3ccc(-c4ccnc(N5C[C@H]6C[C@@H]5CO6)c4)cc32)cc1` [Example 362, N-[(1S)-2-[4-(3,5-dimethyl-1H-pyrazol-4-yl)anilino]-1-[(1R)-6-[2-[(1R,4R)-2-oxa-5-azabicyclo[2.2.1]heptan-5-yl]-4-pyridyl]indan-1-yl]-2-oxo-ethyl]-1-fluoro-cyclopropanecarboxamide], the EC50 is less than 100 nM.

Consider `Cc1n[nH]c(C)c1-c1ccc(NC(=O)[C@@H](NC(=O)C2(F)CC2)[C@@H]2CCc3ccc(-c4ccnc(N5CC6(COC6)C5)c4)cc32)cc1` [Example 364, N-[(1S)-2-[4-(3,5-dimethyl-1H-pyrazol-4-yl)anilino]-1-[(1R)-6-[2-(6-oxa-2-azaspiro[3.3]heptan-2-yl)-4-pyridyl]indan-1-yl]-2-oxo-ethyl]-1-fluoro-cyclopropanecarboxamide], for which the 50% effective concentration (EC50) was less than 100 nM.

In the case of `Cc1cnn(C)c1-c1ccc(NC(=O)[C@@H](NC(=O)C2(F)CC2)[C@@H]2CCc3ccc(-c4cc(N5C[C@@H]6C[C@H]5CO6)ncn4)cc32)cc1` [Example 365, N-[(1S)-2-[4-(2,4-dimethylpyrazol-3-yl)anilino]-1-[(1R)-6-[6-[(1S,4S)-2-oxa-5-azabicyclo[2.2.1]heptan-5-yl]pyrimidin-4-yl]indan-1-yl]-2-oxo-ethyl]-1-fluoro-cyclopropanecarboxamide], the EC50 is 100 to 1000 nM.

In the case of `Cc1nc(-c2ccc3c(c2)[C@H]([C@H](NC(=O)C2(F)CC2)C(=O)Nc2ccc(-c4c(C)n[nH]c4C)cc2)CC3)cc(N2C[C@@H]3C[C@H]2CO3)n1` [Example 366, N-[(1S)-2-[4-(3,5-dimethyl-1H-pyrazol-4-yl)anilino]-1-[(1R)-6-[2-methyl-6-[(1S,4S)-2-oxa-5-azabicyclo[2.2.1]heptan-5-yl]pyrimidin-4-yl]indan-1-yl]-2-oxo-ethyl]-1-fluoro-cyclopropanecarboxamide], the EC50 lay in the range of 100 to 1000 nM.
